Patent publication US7955838B2, “Methods and device for adhesive control of internal cell organisation” (Institut Curie, priority 2003, dated 2011)

System: HeLa cells stably expressing centrin1-GFP
Assay: Nocodazole treatment of premitotic cells on [L] fibronectin micropatterns (centrosome separation, cell rounding, spindle orientation)
Type: cell-based, human
Conditions: for Distribution of spindle orientations after nocodazole wash-out: after wash-out of 10^−7 M nocodazole, [L] patterns, versus non-treated cells
Procedure: HeLa, human epithelial cells, stably expressing centrin1-GFP (Piel et al. J. Cell Biol. 149, 317-329 (2000), were cultured in Dulbecco Modified Eagle Medium with 10% foetal calf serum, 1% penicillin and streptomycin, and 1% glutamine at 37° C. Cells were synchronised using a double thymidine block and then removed from their flask using […], 10 minutes at 37° C. After removing the […] by centrifugation, cells were resuspended in DMEM with 1% FCS and deposited on the printed coverslip at a density of 10^4 cells/cm^2. The inventors used an inverted Leica DMIRBE microscope with an heated and motorized stage combined with a home-made plastic cell chamber to hold the printed glass coverslip, which was covered by a porous membrane allowing CO2 buffering at pH-7.4. Metamorph software (Universal Imaging) was used for image acquisition. Numerous cell divisions were followed using a time-lapse phase contrast on a multi-fields acquisition at a frame rate of one picture every 3 minutes with a 10× magnitude objective. Centrosome movements were followed during mitosis with a 63× apochromat objective lens (Leica) using fluorescent Z acquisitions through a green filter and a phase contrast picture of the cell bottom every 5 minutes. A software has been developed. This software was able to automatically recognise a single fluorescent micropattern within a field and detect the presence of a single cell attached to it. Individual cell divisions were extracted from the 10× phase contrast time-lapse recordings and every picture automatically segmented using a wavelet decomposition and fitted with an ellipse (FIG. 1b). The moment of cell elongation in anaphase was precisely detected, as the shape factor, defined as the ellipse length ratio, suddenly dropped from more than 0.9 to less than 0.6 (FIG. 1c). The angle between the major axis of the ellipse, corresponding to spindle orientation, and the vertical reference of the pattern oriented as shown on FIG. 2 was then recorded. The position of the centre of the round mitotic cell with respect to the pattern was also automatically recorded 6 minutes before anaphase.[…]. The mechanisms by which the premitotic actin network is remodeled during mitotic cortical retraction and the correlative formation of actin-rich retraction fibers are not fully understood. In order to address whether spindle assembly had to take place during the remodelling of the actin network to be correctly oriented, centrosomes were prevented from separating during cell retraction on [L] patterns by treating premitotic cells with 10^-7 M nocodazole during one hour. […] After nocodazole washout, centrosomes separated and formed a bipolar spindle (FIG. 4C). […] RFs are good candidates for guiding spindle orientation as they are maintained despite nocodazole treatment.

[1] = 10^−7 M nocodazole during one hour, premitotic cells on [L] patterns

Compound: COC(=O)Nc1nc2ccc(C(=O)c3cccs3)cc2[nH]1 [nocodazole]
- Effect on cell rounding [1]: did not block cell rounding
- Effect on mitosis / centrosome separation [1]: blocked cells in metaphase with unseparated centrosomes
- Distribution of spindle orientations after nocodazole wash-out: still preferentially orientated parallel to the hypotenuse of the triangle
- Distribution of spindle orientations after nocodazole wash-out (listed as NZ): spindles are still able to mainly orient in round cell bodies as in control cells
- Retracting fibers (RFs) under nocodazole treatment (nocodazole-treated mitotic cells on [L] patterns): maintained
